Measurements: ChEMBL document CHEMBL1201862, “PubChem BioAssay data set” (2004)
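Exposure lasted 48 hours, with cells grown in 96-well plates and compounds tested at five concentrations. Abbreviation: GI50, concentration required for 50% inhibition of growth.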 Activity calls are given as the source filed them. Rule as the data show it: active = GI50 up to about 1.1 µM and inactive = higher.

How the values were obtained:
Experiment in all cases: inhibition of tumour cell growth, NCI panel, 48 h
HT-29 = tested on: HT-29
NCI-H226 = tested on: NCI-H226
M14 = tested on: M14
CCRF-CEM = tested on: CCRF-CEM
UACC-257 = tested on: UACC-257
K562 = tested on: K562
A498 = tested on: A498
IGROV-1 = tested on: IGROV-1
786-0 = tested on: 786-0
A549 = tested on: A549
SNB-19 = tested on: SNB-19
SNB-75 = tested on: SNB-75
NCI-H522 = tested on: NCI-H522
NCI-H23 = tested on: NCI-H23
HOP-92 = tested on: HOP-92
SW-620 = tested on: SW-620
UACC-62 = tested on: UACC-62

Measured: GI50

CC(C)(C)N/N=C(\Cc1occc(=O)c1O)C(=O)Nc1ccc([N+](=O)[O-])cc1[N+](=O)[O-]
inactive: HT-29 > 100 µM | NCI-H226 > 100 µM | M14 > 100 µM | CCRF-CEM > 100 µM | UACC-257 > 100 µM | K562 > 100 µM | A498 > 100 µM | IGROV-1 > 100 µM | 786-0 > 100 µM | A549 > 100 µM | SNB-19 > 100 µM | SNB-75 > 100 µM | NCI-H522 > 100 µM | NCI-H23 > 100 µM | HOP-92 > 100 µM | SW-620 > 100 µM | UACC-62 > 100 µM

CCOC(=O)CCn1[nH]c(=O)c(Cl)c(Cl)c1=O
inactive: HT-29 > 100 µM | NCI-H226 > 100 µM | M14 > 100 µM | CCRF-CEM > 100 µM | UACC-257 > 100 µM | K562 > 100 µM | A498 > 100 µM | IGROV-1 > 100 µM | 786-0 > 100 µM | A549 > 100 µM | SNB-19 > 100 µM | SNB-75 > 100 µM | NCI-H522 > 100 µM | NCI-H23 > 100 µM | HOP-92 > 100 µM | SW-620 > 100 µM | UACC-62 > 100 µM

COC(=O)C1CCC2(CC1)NC(=O)NC2=O (configuration not stated)
inactive: HT-29 > 100 µM | NCI-H226 > 100 µM | M14 > 100 µM | CCRF-CEM > 100 µM | UACC-257 > 100 µM | K562 > 100 µM | A498 > 100 µM | IGROV-1 > 100 µM | 786-0 > 100 µM | A549 > 100 µM | SNB-19 > 100 µM | SNB-75 > 100 µM | NCI-H522 > 100 µM | NCI-H23 > 100 µM | HOP-92 > 100 µM | SW-620 > 100 µM | UACC-62 > 100 µM

COc1ccc(-c2cc(-c3ccco3)c(C#N)c(=O)[nH]2)cc1
inactive: HT-29 > 100 µM | NCI-H226 > 100 µM | M14 > 100 µM | CCRF-CEM > 100 µM | UACC-257 77.4 µM | K562 > 100 µM | A498 28.2 µM | IGROV-1 > 100 µM | 786-0 91 µM | A549 91.4 µM | SNB-19 > 100 µM | SNB-75 18 µM | NCI-H522 20.3 µM | NCI-H23 86.7 µM | HOP-92 > 100 µM | SW-620 > 100 µM | UACC-62 > 100 µM

CCCCCCCCSC(SCCCCCCCC)=C1C(=O)N(c2ccccc2)N=C1C
inactive: HT-29 45.8 µM | NCI-H226 64.4 µM | M14 83 µM | CCRF-CEM 16.1 µM | UACC-257 30.5 µM | K562 28.7 µM | A498 24.3 µM | IGROV-1 43.1 µM | 786-0 46.1 µM | A549 26.8 µM | SNB-19 30.3 µM | SNB-75 41.8 µM | NCI-H522 20.3 µM | NCI-H23 32.8 µM | HOP-92 31.8 µM | SW-620 14.5 µM | UACC-62 24.5 µM

O=C1CCC(c2nc3cc(Cl)ccc3o2)C(=O)N1 (configuration not stated)
inactive: HT-29 > 100 µM | NCI-H226 > 100 µM | M14 > 100 µM | CCRF-CEM > 100 µM | UACC-257 > 100 µM | K562 > 100 µM | A498 > 100 µM | IGROV-1 > 100 µM | 786-0 > 100 µM | A549 > 100 µM | SNB-19 > 100 µM | SNB-75 64.7 µM | NCI-H522 > 100 µM | NCI-H23 > 100 µM | HOP-92 > 100 µM | SW-620 > 100 µM | UACC-62 > 100 µM
